Test results: publication PMC6844379, “Design, synthesis, in vitro inhibition and toxicological evaluation of human carbonic anhydrases I, II and IX inhibitors in 5-nitroimidazole series” (Journal of Enzyme Inhibition and Medicinal Chemistry, 2019)

Biological target: T1, hCA I (Homo sapiens, UniProt P00915)
T1 construct: gene CA1; recombinant, obtained in house as reported earlier; cytosolic isoform
Test: stopped-flow CO2 hydrase assay
Type: biochemical
Settings: […] Hepes pH […] Na2SO4, CO2 […], […] min pre-incubation at room temperature

T1 sequence (P00915 2-261): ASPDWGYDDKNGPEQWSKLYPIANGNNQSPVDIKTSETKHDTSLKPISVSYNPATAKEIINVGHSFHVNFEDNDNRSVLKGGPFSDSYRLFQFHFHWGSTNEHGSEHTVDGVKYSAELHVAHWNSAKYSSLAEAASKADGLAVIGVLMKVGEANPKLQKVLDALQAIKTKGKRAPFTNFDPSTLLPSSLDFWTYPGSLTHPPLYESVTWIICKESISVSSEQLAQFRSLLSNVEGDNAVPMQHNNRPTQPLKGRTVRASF

For Cc1ncc([N+](=O)[O-])n1CCS(N)(=O)=O [compound 10, 2-(2-Methyl-5-nitro-1H-imidazol-1-yl)ethane-1-sulphonamide], the Ki was 6430 nM.
